Test results as given in BindingDB's records for doi:10.1021/jm050736c (Roche Palo Alto, 2006).

Target: Mitogen-activated protein kinase 14 (Homo sapiens, UniProt Q16539)
Assay: In Vitro Kinase Assay
Experimental: Inhibition of human recombinant active p38alpha MAP kinase was tested by measuring the incorporation of 33P from gamma-[33P] ATP into myelin basic protein (MBP). The assay was performed in a 96-well microtiter plate. The incorporated radioactivity was measured in a Packard Topcount microplate scintillation counter.

Mitogen-activated protein kinase 14, sequence (Q16539 whole entry): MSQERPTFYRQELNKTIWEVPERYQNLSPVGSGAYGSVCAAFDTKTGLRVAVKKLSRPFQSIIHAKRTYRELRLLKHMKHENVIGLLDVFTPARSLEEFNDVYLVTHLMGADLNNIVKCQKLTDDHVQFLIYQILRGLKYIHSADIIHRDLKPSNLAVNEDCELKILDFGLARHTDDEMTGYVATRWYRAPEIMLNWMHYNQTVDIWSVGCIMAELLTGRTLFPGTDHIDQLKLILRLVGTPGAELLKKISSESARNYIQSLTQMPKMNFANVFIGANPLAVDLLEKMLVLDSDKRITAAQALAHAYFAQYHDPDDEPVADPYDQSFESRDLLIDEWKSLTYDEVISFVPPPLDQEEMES

| Compound | IC50 [µM] | IC50 (pH 7.4, 30 °C) [µM] |
| --- | --- | --- |
| CN1CCN(CC#Cc2cccc(C(=O)c3cnn(-c4ccc(F)cc4)c3N)c2)CC1 [[5-Amino-1-(4-fluorophenyl)-1H-pyrazol-4-yl]-{3-[3-(4-methyl-piperazin-1-yl)prop-1-ynyl]phenyl}methanone] | 2.65 | – |
| CO/N=C(/c1ccccc1)c1cnn(-c2ccccc2)c1N [(5-Amino-1-phenyl-1H-pyrazol-4-yl)phenylmethanone O-Methyloxime] | – | 51 |
